According to ChEMBL document CHEMBL3217558 (Medchemcomm, 2012):

Legend:
[1] = molecular target: Voltage-gated inwardly rectifying potassium channel KCNH2 (Homo sapiens, UniProt Q12809)
[2] = molecular target: Hepatocyte growth factor receptor (Homo sapiens, UniProt P08581)
Sequence of Hepatocyte growth factor receptor (P08581 whole entry): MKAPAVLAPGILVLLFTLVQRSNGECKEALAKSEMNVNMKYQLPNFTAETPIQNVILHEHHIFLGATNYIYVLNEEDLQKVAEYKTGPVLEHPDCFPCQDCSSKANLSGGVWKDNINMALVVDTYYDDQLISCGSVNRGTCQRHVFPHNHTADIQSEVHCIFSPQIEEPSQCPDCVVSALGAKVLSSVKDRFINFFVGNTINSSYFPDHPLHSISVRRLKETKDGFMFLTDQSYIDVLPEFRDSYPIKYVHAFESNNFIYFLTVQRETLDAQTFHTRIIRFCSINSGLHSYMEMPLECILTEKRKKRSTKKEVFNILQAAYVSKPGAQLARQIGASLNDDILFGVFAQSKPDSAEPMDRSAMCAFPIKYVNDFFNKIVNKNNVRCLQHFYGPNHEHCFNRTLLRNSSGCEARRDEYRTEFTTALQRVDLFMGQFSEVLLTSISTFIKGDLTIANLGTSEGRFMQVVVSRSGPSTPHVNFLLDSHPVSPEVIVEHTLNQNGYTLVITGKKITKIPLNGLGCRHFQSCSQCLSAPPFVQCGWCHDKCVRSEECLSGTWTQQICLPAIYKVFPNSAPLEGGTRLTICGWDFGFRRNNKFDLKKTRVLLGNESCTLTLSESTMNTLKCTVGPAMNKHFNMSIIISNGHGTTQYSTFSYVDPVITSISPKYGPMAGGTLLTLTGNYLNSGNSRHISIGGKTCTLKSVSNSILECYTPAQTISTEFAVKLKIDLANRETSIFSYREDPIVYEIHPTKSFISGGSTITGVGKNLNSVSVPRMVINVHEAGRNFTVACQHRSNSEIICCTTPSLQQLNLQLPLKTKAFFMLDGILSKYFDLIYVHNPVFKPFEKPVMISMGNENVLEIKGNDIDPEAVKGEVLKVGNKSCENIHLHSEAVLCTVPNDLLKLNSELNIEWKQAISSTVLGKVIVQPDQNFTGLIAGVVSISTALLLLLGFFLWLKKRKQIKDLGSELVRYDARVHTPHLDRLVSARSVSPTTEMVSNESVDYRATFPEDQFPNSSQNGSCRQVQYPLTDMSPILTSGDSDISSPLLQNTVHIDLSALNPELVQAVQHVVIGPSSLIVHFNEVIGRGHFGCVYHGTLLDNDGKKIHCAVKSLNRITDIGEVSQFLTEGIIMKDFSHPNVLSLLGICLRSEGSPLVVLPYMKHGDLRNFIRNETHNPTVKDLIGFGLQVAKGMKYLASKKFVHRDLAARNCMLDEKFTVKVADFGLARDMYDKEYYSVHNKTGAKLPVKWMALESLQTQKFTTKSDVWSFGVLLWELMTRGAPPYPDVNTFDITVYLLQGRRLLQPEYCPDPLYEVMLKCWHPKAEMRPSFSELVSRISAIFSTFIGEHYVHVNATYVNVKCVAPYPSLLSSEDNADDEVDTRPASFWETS
Description: Inhibition of c-Met (unknown origin) using poly (Glu, Tyr) 4:1 as substrate after 60 mins by ELISA

Sequence of Voltage-gated inwardly rectifying potassium channel KCNH2 (Q12809 whole entry): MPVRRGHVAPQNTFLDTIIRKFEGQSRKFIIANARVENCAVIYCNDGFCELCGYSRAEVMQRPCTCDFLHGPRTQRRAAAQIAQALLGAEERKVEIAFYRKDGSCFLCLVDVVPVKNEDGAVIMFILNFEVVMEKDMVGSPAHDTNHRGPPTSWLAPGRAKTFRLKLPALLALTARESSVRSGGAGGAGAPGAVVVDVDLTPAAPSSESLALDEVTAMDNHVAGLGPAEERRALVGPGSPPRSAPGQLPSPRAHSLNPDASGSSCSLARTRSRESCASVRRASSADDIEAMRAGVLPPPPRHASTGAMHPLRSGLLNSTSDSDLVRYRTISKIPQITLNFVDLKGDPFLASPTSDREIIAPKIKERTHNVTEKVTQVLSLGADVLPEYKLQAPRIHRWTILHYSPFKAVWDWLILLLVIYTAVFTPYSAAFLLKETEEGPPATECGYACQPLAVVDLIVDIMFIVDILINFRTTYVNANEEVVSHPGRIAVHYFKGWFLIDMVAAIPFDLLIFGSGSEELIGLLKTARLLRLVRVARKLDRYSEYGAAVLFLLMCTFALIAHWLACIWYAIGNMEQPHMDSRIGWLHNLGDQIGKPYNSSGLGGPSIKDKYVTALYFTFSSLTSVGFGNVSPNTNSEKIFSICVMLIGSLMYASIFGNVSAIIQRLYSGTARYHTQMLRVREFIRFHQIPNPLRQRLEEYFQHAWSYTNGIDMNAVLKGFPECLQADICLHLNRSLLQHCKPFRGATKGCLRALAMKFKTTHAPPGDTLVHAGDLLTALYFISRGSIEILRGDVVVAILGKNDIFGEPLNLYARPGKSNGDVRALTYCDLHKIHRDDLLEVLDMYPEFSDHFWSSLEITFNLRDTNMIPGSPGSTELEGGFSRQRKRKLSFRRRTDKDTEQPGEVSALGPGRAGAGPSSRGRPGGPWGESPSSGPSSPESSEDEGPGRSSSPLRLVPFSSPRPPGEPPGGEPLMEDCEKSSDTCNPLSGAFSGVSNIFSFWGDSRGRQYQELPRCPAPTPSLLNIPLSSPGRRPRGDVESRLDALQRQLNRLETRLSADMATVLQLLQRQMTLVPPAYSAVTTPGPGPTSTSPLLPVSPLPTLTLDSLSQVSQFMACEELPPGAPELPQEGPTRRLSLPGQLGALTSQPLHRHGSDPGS

Row | SMILES | IC50 [1] [µM] | IC50 [2] [µM]
1 | CC(=O)c1cccc(CNc2cc(C(F)(F)F)cc3ncc(N4CCN(C)CC4)cc23)c1 | 93.6 | 
2 | CCNC(=O)Nc1cccc(CNc2cc(C(F)(F)F)cc3ncc(N4CCN(C)CC4)cc23)c1 | 81.7 | 
3 | [2H]C(Nc1cc(C(F)(F)F)cc2ncc(N3CCN(C(C)=O)CC3)cc12)c1cccc([N+](=O)[O-])c1 (stereo not drawn) |  | 0.0016
